Measurements from patent US20050106305A1, “Beverage compositions comprising monatin and methods of making same” (Cargill, Inc., priority 2003, published 2005).

Key:
[1] = Monatin dose response, sweetness estimation in pH 3.2 model soft drink system; assay type: in vivo; details: for SEV: pH 3.2 model soft drink system
Method: Solutions of monatin (mixture of approximately 96% of the 2R,4R/2S, 4S enantiometric pair and 4% of the 2R,4S/2S,4R enantiometric pair-also called “racemic mix” of monatin”) at 15, 30, 45, 60, 75 and 90 ppm were prepared in a pH 3.2 model soft drink system that contained 0.14% (w/v) citric acid and 0.04% (w/v) sodium citrate. The sweetness of monatin relative to sucrose was determined using the sweetness estimation methodology described below. All assessments were carried out in duplicate by a panel (n=6-8) of trained panelists experienced in this sweetness determination procedure. All samples were served at a temperature of 20° C. ±1° C.
Monatin solutions were coded and presented individually to panelists, in random order. Sucrose reference standards, ranging from 2.0-11.0% (w/v) sucrose, increasing in steps of 0.5% (w/v) sucrose also were provided. Panelists were asked to estimate sweetness by comparing the sweetness of the test solution to the sucrose standards. This was carried out by taking 3 sips of the test solution, followed by a sip of water, followed by 3 sips of sucrose standard followed by a sip of water, etc. Panelists were encouraged to estimate the sweetness to one decimal place, e.g., 6.8, 8.5. A five minute rest period was imposed between evaluating the test solutions. Panelists also were asked to rinse well and eat a cracker to reduce any potential carry over effects.

[2] = Equisweet blends of monatin with carbohydrate sweeteners (parity to 10.0% sucrose); assay type: in vivo; details: for Effective Relative Sweetness Intensity (x sucrose) of Monatin: blend with sucrose equisweet to 10.0% sucrose
Method: Blends of monatin (as described in Example 14) with sucrose, HFCS (55% fructose), and glucose syrup (63 dextrose equivalents, DE) equisweet to 10.0% (w/v) sucrose were prepared. For each carbohydrate sweetener, the monatin:sweetener ratio was adjusted so that monatin delivered 25, 50, and 75% of the total sweetness. Sweetness parity to 10.0% (w/v) sucrose was determined using the sweetness estimation method described in Example 14. As in Example 14, all assessments were carried out in the pH 3.2 model soft drink system, using 6-8 panelists, each tasting in duplicate. Results are presented as Tables 7-9.

[3] = Time intensity profile in a soft drink system; assay type: in vivo; details: 80 ppm monatin, 10.0% sucrose, 200 ppm sucralose, pH 3.2 model soft drink
Method: Solutions of 80 ppm monatin (racemic mix of monatin described in Example 14), 10.0% (w/v) sucrose and 200 ppm sucralose were prepared in the pH 3.2 model soft drink system described in Example 14. The time intensity profile of these solutions then was assessed using the following procedure. Six panelists were included in the study. These panelists were screened for their general sensory acuity and selected for their sensitivity to sweetness intensity and sweetness quality differences. All were experienced in methods of sweetener assessment and had received special training in time intensity evaluations. Training sessions were carried out initially to familiarize the panel with the method of evaluation and scoring the samples over time using a computerized data entry system.
Samples of each solution (13 mL) were coded and presented individually to panelists, in random order. For each panelist, immediately after swallowing, the computer recorded timed intensity readings on the scale of 0-100 each second, up to 60 seconds. Each solution was evaluated in duplicate.

[4] = Sweetness dose response of monatin and saccharin, model system pH 3.2; assay type: in vivo
Method: Sweetness of monatin and saccharin was assessed using 20 trained sensory evaluators, making judgements in duplicate. Test and reference solutions were prepared in citric/citrate buffer at pH 3.2. […] The plateau above 10% SEV indicates absence/low levels of “mixture-suppressing” off-tastes and aftertastes. The shape of monatin's dose-response curve is similar to those of aspartame, sucralose and alitame, all of which are “quality” sweeteners.

[5] = Stability of monatin at pH 3 with increasing temperatures; assay type: physicochemical
Method: A sample of synthetic monatin was subjected to pH 3 at temperatures of 25° C., 50° C. and 100° C. At room temperature and pH 3, a 14% loss in monatin was observed over a period of 48 hours. This loss was attributed to lactone formation. At 50° C. and pH 3, a 23% loss in monatin was observed over a period of 48 hours. This loss was attributed to lactone formation and the buildup of an unknown compound after about 15.5 minutes. […] The major detectable component was an unknown at 15.5 minutes.

[6] = Stability when exposed to ultra violet (UV) light; assay type: physicochemical; details: phosphoric/citrate buffer at pH 3.0, ambient temperature; data not shown
Text: UV instability can be accelerated by certain flavor systems. UV-absorbing packaging material, colorants and/or antioxidants can protect against UV light-induced flavor interactions in monatin-containing beverages.

[7] = Stability of monatin at 80° C. and neutral pH, LC-MS; assay type: physicochemical; details: 75 ppm
Method: A 100 milliliter solution of 75 ppm monatin at pH 7 was used as a stock solution. The synthetic monatin sample contained approximately 96% of the 2R,4R/2S,4S enantiomeric pair and 4% of the 2R,4S/2S,4R enantiomeric pair. Samples were incubated at 80° C. and pH 7 for the duration of the experiment and samples were withdrawn at 0, 1, 2, 3, 4 hours and 1, 2, 4, 7, 14, 21 and 35 days. All experimental conditions were run in duplicate.
Separation and Quantification Using LC-MS Using Reverse Phase Chromatography—A response curve was established for both detected diastereomer peaks of the synthetic monatin. A range of 5-150 ppm was bracketed with the synthetic monatin standard dissolved in DI water. Separation of the two diastereomer peaks was accomplished using a 3.9×150 mm Novapak C18 (Waters Corporation) HPLC column. Ultraviolet-Visible (UV) and Mass Spectrometer (MS) detectors were used in series for detection and quantitation. Monatin and its lactone peak each have a UVmax at 279 nm that aided in precise detection. Quantification was done by acquiring Selected Ion Monitoring (SIM) scan of 293.3 m/z and 275.3 m/z in positive-ion electrospray mode.

[8] = Quantitative synergy of monatin with other sweeteners; assay type: in vivo
[9] = sole sweetener in the model system (pH 3.2)

## NC(CC(O)(Cc1c[nH]c2ccccc12)C(=O)O)C(=O)O (racemic) [Monatin, 2-hydroxy-2-(indol-3-ylmethyl)-4-aminoglutaric acid]
[1]; Monatin Conc. 15 ppm
  SEV: 3.6 %; w/v
[1]; Monatin Conc. 30 ppm
  SEV: 4.9 %; w/v
[1]; Monatin Conc. 45 ppm
  SEV: 7.1 %; w/v
[1]; Monatin Conc. 60 ppm
  SEV: 8.5 %; w/v
[1]; Monatin Conc. 75 ppm
  SEV: 9.8 %; w/v
[1]; Monatin Conc. 90 ppm
  SEV: 10.5 %; w/v
[1]; at 10.0% (w/v) SEV, blend of monatin stereoisomers (racemic mix)
  relative sweetness intensity: 1250 × sweeter than sucrose
[2]; sweetness contribution of monatin 25%, sucrose 7.5%, monatin 12.3 ppm
  Effective Relative Sweetness Intensity (x sucrose) of Monatin: 2000 x sucrose
[2]; sweetness contribution of monatin 50%, sucrose 5.0%, monatin 30.8 ppm
  Effective Relative Sweetness Intensity (x sucrose) of Monatin: 1600 x sucrose
[2]; sweetness contribution of monatin 75%, sucrose 2.5%, monatin 50.3 ppm
  Effective Relative Sweetness Intensity (x sucrose) of Monatin: 1500 x sucrose
[2]; blended with carbohydrate sweeteners
  sweetness intensity when blended with carbohydrate sweeteners: 1500-2000 × sucrose
[3]
  Area Under Curve: 117.3 unit × s
  Rate of Decline: 2.2 unit/s
  Rate of Onset: 14.9 unit/s
  Time for Sweetness to Decline to Half Maximum Value: 34.2 s
  Time to Half Maximum Sweetness: 2.4 s
  Time to Maximum Sweetness: 9.0 s
[3]; scale 0-100
  Intensity of Maximum Sweetness: 66.6 unit
[4]; [9]
  Aftertaste: slight “aspartame-like” aftertaste
  sweet taste decay: quite rapid
  sweet taste onset: slight delay
[4]; sole sweetener, un-flavored systems (pH 3.2)
  cooling sensation: residual cooling sensation
[5]; 50° C. and pH 3, over 48 hours
  loss in monatin: 23%
[5]; 100° C. and pH 3, after 24 hours
  loss in monatin: nearly all monatin was lost
[5]; room temperature (25° C.) and pH 3, over 48 hours
  loss in monatin: 14%
[6]
  stability when exposed to ultra violet (UV) light: similarly stable or slightly more stable than aspartame
[7]; 80° C. and pH 7, up to 35 days
  change in concentration of monatin or lactones thereof: no change in concentration
[7]; 80° C., pH 7, after 7-35 days
  degree of degradation of monatin: insignificant
[8]; blends
  quantitative synergy with aspartame, saccharin, acesulfame-K, sucralose, or carbohydrate sweeteners: no significant quantitative synergy
[8]; blends with cyclamates
  quantitative synergy with cyclamates: quantitatively synergistic
